The text below walks through data of PMC6130489, “Caffeic acid methyl and ethyl esters exert potential antidiabetic effects on glucose and lipid metabolism in cultured murine insulin-sensitive cells through mechanisms implicating activation of AMPK” (Pharmaceutical Biology, 2017).

The subject of one series is L6 GLUT4myc cells. Put plainly: LDH cytotoxicity assay. Conditions: 16-18 h, concentration inducing less than 10% cell death. Type of series: cell-based. As for the experimental part:
(§1) To determine nontoxic concentrations, cells were treated overnight (16–18 h) with 0.1% DMSO or different concentrations of either CAME or CAEE (12.5, 25, 50 and 100 μM). Cell culture media were collected separately and kept on ice. The cells were rinsed with PBS then lysed with 1% Triton X-100 in culture media for 10 min and the lysate were centrifuged at 4 °C for 10 min at 250g. Lactate dehydrogenase (LDH) activity in medium and in lysates was assayed with the LDH-Cytotoxicity Assay Kit II (BioVision, Mountain View, CA) according to the manufacturer's protocol (Smith et al. [2011]). LDH activity was expressed as the ratio of released LDH (medium) to total (medium + lysate) LDH activity.
(§2) Similar to our previous study in C2C12 cells, the maximum nontoxic concentrations of CAME and CAEE were determined using a LDH assay kit. Concentrations that induced less than 10% cell death were chosen as the maximum nontoxic concentrations (Table 1).

The subject of the next series is H4IIE cells. Put plainly: LDH cytotoxicity assay. Type of series: cell-based. The settings on record: 16-18 h, concentration inducing less than 10% cell death. As for the experimental part: as §1, §2
A further series relates to 3T3-L1 cells. As to the kind of experiment: LDH cytotoxicity assay. Type of series: cell-based. The settings on record: 16-18 h, concentration inducing less than 10% cell death. Here is the method: as §1, §2
In a further series the test system is GLUT4. Put plainly: Western immunoblot GLUT4 protein content in L6 myotubes. Type of series: cell-based, rat. The settings on record: 50 μM, 18 h, GLUT4/β-actin. Here is the method: (§3) L6 cells myotubes, H4IIE cells and 3T3-L1 adipocytes were treated with either CAME, CAEE (50 μM each) or vehicle (DMSO) for 18 h. Insulin (100 nM) or aminoimidazole carboxamide ribonucleotide (AICAR; 1 mM) were added to some vehicle-treated wells 30 min prior to the end of the treatment and served as the positives controls. Protein content was assayed by the bicinchoninic acid method (Thermo Scientific Pierce Protein Research, Rockford, IL) standardized to bovine serum albumin. Western immunoblotting was performed as described elsewhere (Eid et al. [2010]). […] Immunoreactive bands were visualized by enhanced chemiluminescence and quantified by the Scion Image program (Scion Corporation, Frederick, MD). […]
(§4) Figure 1. […] Cells were treated as previously described, cell surface GLUT4myc was detected by an enzyme-linked colorimetric assay. […] Results represent the means ± SEM of three independent experiments, and 3-4 cells were analyzed for each condition per experiment. *Indicates a significant (p ≤ 0.05) difference, **(p < 0.01) from the vehicle control group as assessed by ANOVA. […] Data are expressed as (D) phospho-AMPK/β-actin, (E) GLUT4/β-actin and (F) GLUT1/β-actin and are given as mean ± SEM from 3 experiments. *p < 0.05 indicates a significant difference, **(p < 0.01) from the vehicle control group.

The subject of a further series is AMPK. Put plainly: Western immunoblot phospho-AMPK in 3T3-L1 adipocytes. Type of series: cell-based, mouse. The settings on record: 100 μM (Figure 4 legend), phospho-AMPK/pan-AMPK. As for the experimental part:
Insulin (100 nM) or aminoimidazole carboxamide ribonucleotide (AICAR; 1 mM) were added to some vehicle-treated wells 30 min prior to the end of the treatment and served as the positives controls. Protein content was assayed by the bicinchoninic acid method (Thermo Scientific Pierce Protein Research, Rockford, IL) standardized to bovine serum albumin. Western immunoblotting was performed as described elsewhere (Eid et al. [2010]). Membranes were incubated overnight with phospho-AMPK, phospho-Akt, GLUT4, GLUT1 and β-actin antibodies (1:1000 dilution, Cell Signalling Technology, Danvers, MA), or with PPAR-γ, SREBP-1 (1:200, Santa Cruze Biotechnology, Santa Cruz, CA), followed by incubation with HRP-coupled secondary antibody (1:10,000) for 1 h. Immunoreactive bands were visualized by enhanced chemiluminescence and quantified by the Scion Image program (Scion Corporation, Frederick, MD). Experiments were repeated on 3 different passages of cells, each passage containing all conditions in parallel.
Figure 4. CAME and CAEE inhibit C/EBP-β and PPAR-γ protein expression through mechanisms implicating AMPK pathway. Shown are representative blots of 3T3-adipocytes treated with the maximum nontoxic concentration (100 μM) of either CAME or CAEE. […] Data are expressed as C/EBP-β/β-actin (D), PPAR-γ/β-actin (E), phospho-Akt/pan-Akt (F) and phospho-AMPK/pan-AMPK (G). […]
Background: Immunoblotting shows a protein as a band on a membrane.

A further series relates to GLUT1. As to the kind of experiment: Western immunoblot GLUT1 protein content in L6 myotubes. Type of series: cell-based, rat. The settings on record: 50 μM, 18 h. Here is the method: as §3, §4

For `CCOC(=O)/C=C/c1ccc(O)c(O)c1` [CAEE, caffeic acid ethyl ester], the Maximum non-toxic concentration was 50 µM with L6 GLUT4myc cells, 50 µM in the series on H4IIE cells and 100 µM with 3T3-L1 cells. Moreover, in the series on GLUT4, the “GLUT4 content, fold compared to DMSO” value is recorded as ~3.2 fold. Moreover, in the series on AMPK, the “phospho-AMPK, fold increase over basal levels” value is listed as 2.3 fold. In the series with GLUT1, the “effect on GLUT1 protein levels” value is reported as “no effect”.
In the case of `COC(=O)/C=C/c1ccc(O)c(O)c1` [CAME, CA methyl ester], the results for the Maximum non-toxic concentration with L6 GLUT4myc cells, with H4IIE cells and with 3T3-L1 cells were 50 µM, 100 µM and 100 µM, respectively. In addition, in the series on GLUT4, the “GLUT4 content, fold compared to DMSO” value is ~2.7 fold. Further, the “phospho-AMPK, fold increase over basal levels” value in the series with AMPK turned out to be 2.4 fold. In addition, in the series on GLUT1, the “effect on GLUT1 protein levels” value is reported as “no effect”.
